# According to patent US20030162722A1, “Pharmaceutical compositions comprising acryloyl distamycin derivatives and topoisomerase I and II inhibitors” (priority 2000, published 2003):
# Tested on: disseminated L1210 murine leukemia
# Test: Antileukemic activity against disseminated L1210 murine leukemia
# Conditions: PNU 166196 0.52 mg/kg; for ILS % (increase in life span) / Tox (number of toxic deaths/number of mice): L1210 cells 10^5/mouse CD2F1 IV day 0, treatment iv day +1, doxorubicin 10 mg/kg (given 2 h after PNU 166196), alone or combined at the same doses
# Text: For these experiments, PNU 166196 and doxorubicin were solubilized in water for injection.
Structure (SMILES),ILS % (increase in life span),Tox (number of toxic deaths/number of mice),"toxicity (in words) (single agents, iv day +1, doxorubicin 10 mg/kg)"
"COc1cccc2c1C(=O)c1c(O)c3c(c(O)c1C2=O)C[C@@](O)(C(=O)CO)C[C@@H]3O[C@H]1C[C@H](N)[C@H](O)[C@H](C)O1 [Doxorubicin, doxorubicin, reference compound]",58%,0/10,
"C=C(Br)C(=O)Nc1cc(C(=O)Nc2cc(C(=O)Nc3cc(C(=O)Nc4cc(C(=O)NCCNC(=N)N)n(C)c4)n(C)c3)n(C)c2)n(C)c1.Cl [PNU 166196, N-(5-{[(5-{[(5-{[(2-{[amino(imino)methyl]amino}ethyl)amino]carbonyl}-1-methyl-1H-pyrrol-3-yl)amino]carbonyl}-1-methyl-1H-pyrrol-3-yl)amino]carbonyl}-1-methyl-1H-pyrrol-3-yl)-4-[(2-bromoacryloyl)amino]-1-methyl-1H-pyrrole-2-carboxamide hydrochloride]",33%,0/10,without toxicity
